Data as given in ChEMBL document CHEMBL3885881, “DrugMatrix”.

Species: Rattus norvegicus
Test: DrugMatrix - Regimen: Daily Repeat
Type: toxicity, organism-based, Sprague-Dawley
Design: regimen Daily Repeat, gender Male, age 6-8 weeks
Details: in vivo, sc, route subcutaneous, […]; for ABSOLUTE BASOPHIL / ABSOLUTE EOSINOPHIL / ABSOLUTE LYMPHOCYTE / ABSOLUTE MONOCYTE / ABSOLUTE SEGMENTED NEUTROPHIL / BASOPHIL / EOSINOPHIL / ERYTHROCYTE COUNT / HEMATOCRIT / HEMOGLOBIN / LEUKOCYTE COUNT / LYMPHOCYTE / MEAN CORPUSCULAR HEMOGLOBIN / MEAN CORPUSCULAR HEMOGLOBIN CONCENTRATION / MEAN CORPUSCULAR VOLUME / MONOCYTE / NEUTROPHIL / NUCLEATED RED BLOOD CELLS / PLATELET COUNT: tissue Blood; for ALANINE AMINOTRANSFERASE / ALBUMIN / ALKALINE PHOSPHATASE / ASPARTATE AMINOTRANSFERASE / BLOOD UREA NITROGEN / CARBON DIOXIDE / CHLORIDE / CHOLESTEROL / CREATINE PHOSPHOKINASE / CREATININE / GLUCOSE / LACTATE DEHYDROGENASE / LIPASE / PHOSPHORUS / POTASSIUM / SODIUM / TOTAL BILIRUBIN / TOTAL PROTEIN / URIC ACID: tissue Plasma
[1] = 27 mg/kg, 120 h, dose level Low, time 5 day
[2] = 1200 mg/kg, 72 h, dose level High, time 3 day
[3] = 1200 mg/kg, 120 h, dose level High, time 5 day

Compound: Clc1ccc(CSC(Cn2ccnc2)c2ccc(Cl)cc2Cl)cc1 (centres undefined) [SULCONAZOLE]
- ABSOLUTE BASOPHIL [1]: 0 CELLS/uL
- ABSOLUTE EOSINOPHIL [1]: 176 CELLS/uL
- ABSOLUTE LYMPHOCYTE [1]: 10589.67 CELLS/uL
- ABSOLUTE MONOCYTE [1]: 178.33 CELLS/uL
- ABSOLUTE SEGMENTED NEUTROPHIL [1]: 2489.33 CELLS/uL
- BASOPHIL [1]: 0%
- EOSINOPHIL [1]: 1.33%
- ERYTHROCYTE COUNT [1]: 5.26 x10E6/uL
- HEMATOCRIT [1]: 33.93%
- HEMOGLOBIN [1]: 13 G/DL
- LEUKOCYTE COUNT [1]: 13.43 x10E3/uL
- LYMPHOCYTE [1]: 78.33%
- MEAN CORPUSCULAR HEMOGLOBIN [1]: 24.73 pg
- MEAN CORPUSCULAR HEMOGLOBIN CONCENTRATION [1]: 38.3 G/DL
- MEAN CORPUSCULAR VOLUME [1]: 64.6 fL
- MONOCYTE [1]: 1.33%
- NEUTROPHIL [1]: 19%
- NUCLEATED RED BLOOD CELLS [1]: 0 /100WBC
- PLATELET COUNT [1]: 1332 x10E3/uL
- ALANINE AMINOTRANSFERASE [1]: 56 u/L
- ALBUMIN [1]: 3.9 G/DL
- ALKALINE PHOSPHATASE [1]: 279.67 u/L
- ASPARTATE AMINOTRANSFERASE [1]: 81.67 u/L
- BLOOD UREA NITROGEN [1]: 17 mg/dL
- CARBON DIOXIDE [1]: 25.33 mmol/L
- CHLORIDE [1]: 105.67 MEQ/L
- CHOLESTEROL [1]: 64.67 mg/dL
- CREATINE PHOSPHOKINASE [1]: 435.33 u/L
- CREATININE [1]: 0.16 mg/dL
- GLUCOSE [1]: 162.33 mg/dL
- LACTATE DEHYDROGENASE [1]: 119.67 u/L
- LIPASE [1]: 7.33 u/L
- PHOSPHORUS [1]: 14.4 mg/dL
- POTASSIUM [1]: 6.46 MEQ/L
- SODIUM [1]: 145.43 MEQ/L
- TOTAL BILIRUBIN [1]: 0.17 mg/dL
- TOTAL PROTEIN [1]: 5.9 G/DL
- URIC ACID [1]: 1.63 mg/dL
- ABSOLUTE BASOPHIL [2]: 0 CELLS/uL
- ABSOLUTE EOSINOPHIL [2]: 83.33 CELLS/uL
- ABSOLUTE LYMPHOCYTE [2]: 7163.33 CELLS/uL
- ABSOLUTE MONOCYTE [2]: 161.33 CELLS/uL
- ABSOLUTE SEGMENTED NEUTROPHIL [2]: 2925.33 CELLS/uL
- BASOPHIL [2]: 0%
- EOSINOPHIL [2]: 1%
- ERYTHROCYTE COUNT [2]: 5.45 x10E6/uL
- HEMATOCRIT [2]: 33.7%
- HEMOGLOBIN [2]: 12.87 G/DL
- LEUKOCYTE COUNT [2]: 10.33 x10E3/uL
- LYMPHOCYTE [2]: 68.33%
- MEAN CORPUSCULAR HEMOGLOBIN [2]: 23.6 pg
- MEAN CORPUSCULAR HEMOGLOBIN CONCENTRATION [2]: 38.2 G/DL
- MEAN CORPUSCULAR VOLUME [2]: 61.83 fL
- MONOCYTE [2]: 1.67%
- NEUTROPHIL [2]: 29%
- NUCLEATED RED BLOOD CELLS [2]: 0 /100WBC
- PLATELET COUNT [2]: 1327 x10E3/uL
- ALANINE AMINOTRANSFERASE [2]: 43 u/L
- ALBUMIN [2]: 3.9 G/DL
- ALKALINE PHOSPHATASE [2]: 294.67 u/L
- ASPARTATE AMINOTRANSFERASE [2]: 79.33 u/L
- BLOOD UREA NITROGEN [2]: 14 mg/dL
- CARBON DIOXIDE [2]: 30 mmol/L
- CHLORIDE [2]: 109 MEQ/L
- CHOLESTEROL [2]: 69.33 mg/dL
- CREATINE PHOSPHOKINASE [2]: 308.33 u/L
- CREATININE [2]: 0.2 mg/dL
- GLUCOSE [2]: 133.67 mg/dL
- LACTATE DEHYDROGENASE [2]: 112.67 u/L
- LIPASE [2]: 8 u/L
- PHOSPHORUS [2]: 10.93 mg/dL
- POTASSIUM [2]: 6.11 MEQ/L
- SODIUM [2]: 149.45 MEQ/L
- TOTAL BILIRUBIN [2]: 0.13 mg/dL
- TOTAL PROTEIN [2]: 6.27 G/DL
- URIC ACID [2]: 0.83 mg/dL
- ABSOLUTE BASOPHIL [3]: 0 CELLS/uL
- ABSOLUTE EOSINOPHIL [3]: 276.67 CELLS/uL
- ABSOLUTE LYMPHOCYTE [3]: 12157 CELLS/uL
- ABSOLUTE MONOCYTE [3]: 40.67 CELLS/uL
- ABSOLUTE SEGMENTED NEUTROPHIL [3]: 4359 CELLS/uL
- BASOPHIL [3]: 0%
- EOSINOPHIL [3]: 1.67%
- ERYTHROCYTE COUNT [3]: 5.75 x10E6/uL
- HEMATOCRIT [3]: 35.17%
- HEMOGLOBIN [3]: 13.07 G/DL
- LEUKOCYTE COUNT [3]: 16.83 x10E3/uL
- LYMPHOCYTE [3]: 72.33%
- MEAN CORPUSCULAR HEMOGLOBIN [3]: 22.73 pg
- MEAN CORPUSCULAR HEMOGLOBIN CONCENTRATION [3]: 37.2 G/DL
- MEAN CORPUSCULAR VOLUME [3]: 61.23 fL
- MONOCYTE [3]: 0.33%
- NEUTROPHIL [3]: 25.67%
- NUCLEATED RED BLOOD CELLS [3]: 0 /100WBC
- PLATELET COUNT [3]: 1614.33 x10E3/uL
- ALANINE AMINOTRANSFERASE [3]: 39.67 u/L
- ALBUMIN [3]: 3.47 G/DL
- ALKALINE PHOSPHATASE [3]: 268.67 u/L
- ASPARTATE AMINOTRANSFERASE [3]: 76.33 u/L
- BLOOD UREA NITROGEN [3]: 16.67 mg/dL
- CARBON DIOXIDE [3]: 25 mmol/L
- CHLORIDE [3]: 104.33 MEQ/L
- CHOLESTEROL [3]: 59.67 mg/dL
- CREATINE PHOSPHOKINASE [3]: 355 u/L
- CREATININE [3]: 0.23 mg/dL
- GLUCOSE [3]: 160.67 mg/dL
- LACTATE DEHYDROGENASE [3]: 169.33 u/L
- LIPASE [3]: 7.33 u/L
- PHOSPHORUS [3]: 12.67 mg/dL
- POTASSIUM [3]: 6.48 MEQ/L
- SODIUM [3]: 144.93 MEQ/L
- TOTAL BILIRUBIN [3]: 0.13 mg/dL
- TOTAL PROTEIN [3]: 6.1 G/DL
- URIC ACID [3]: 2.87 mg/dL
